In PubChem BioAssay AID1919002 (Molecular Pharmacology Branch, DTP, NCI, 2023) one finds viability, T/C and IC50 data, which are given here for eight molecules.

One may read the viability, T/C as the ratio of treated to control. As usually defined, the IC50 is the concentration that gives 50% inhibition.

Several values for one entry are separate records, joined by “and”; a condition that tells them apart may be missing. Equal entries are not always repeated.

The assay concerns 743489-274-T-PDC complex spheroid growth. Briefly: Anticancer human tumor 743489-274-T-PDC patient-derived renal cell carcinoma cell line growth inhibition [AhR]. The note with it: for viability, T/C: stronger effect = lower value. The source says:
Multicellular complex tumor spheroid response to aryl hydrocarbon receptor antagonists in combination with a variety of drugs and investigational agents in selected tumor cell lines
The current study was undertaken to assess response to aryl hydrocarbon receptor antagonists in combination with standard-of-care drugs and investigational agents in solid tumor complex spheroid models. Complex spheroids include a stromal component modeled by human endothelial cells (HUVEC) and fibroblasts modeled by human mesenchymal stem cells (MSCs). The concentration ranges selected for each drug and investigational agent were based upon clinically achievable concentrations if the clinical Cmax of the agent was known.
Compounds. The drugs and investigational agents: BAY 2416964 (NSC825713), GNF351 (NSC835774), CH-223191 (NSC835775), CPI-455 (NSC825282), aza-TdCyd (NSC777586), decitabine (NSC127716), belinostat (NSC758774), entinostat (NSC756642), pevonedistat (NSC761192), tazemetostat (NSC777109), talazoparib (NSC765396), olaparib (NSC753686), selinexor (NSC780203), nedisertib (M3814, NSC802822), bortezomib (NSC756655), venetoclax (NSC766270), doxorubicin (NSC123127), elimusertib (BAY189344, NSC800525), ceralasertib (AZD6738, NSC777638), TAK-243 (NSC785004), alisertib (NSC759677), etoposide (NSC141540), topotecan (NSC609699), eribulin (NSC707389), gemcitabine (NSC613327), carboplatin (NSC241240), cisplatin (NSC119875), and SN-38 (NSC673596) were obtained from the National Cancer Institute (NCI) Developmental Therapeutics Program Chemical Repository (32). The FDA-approved anticancer drug set is available from the Developmental Therapeutics Program at https://dtp.cancer.gov/organization/dscb/obtaining/available plates.htm. […] The stock solutions were prepared in dimethyl sulfoxide (DMSO, Sigma-Aldrich, St. Louis, MO, cat. D2650), except for the platinum compounds which were prepared in saline (Quality Biological, Gaithersburg, MD, cat. 114-055-101), at 800-fold the tested concentration and stored at -70 degrees C prior to their use. All drugs and investigational agents were tested over a range starting from a high concentration at or near the clinical Cmax and decreasing in half-log increments. If the clinical Cmax for an agent had not been determined, the highest concentration tested was 10 microM (Table 1).
Cell Culture. All cells were maintained in an incubator at 37 degrees C and 5% CO2 with 95% humidity. The PDC lines were cultured according to standard operating procedures established by the NCI PDMR (https://pdmr.cancer.gov). Briefly, all PDCs were thawed and cultured in Matrigel-coated flasks prepared with a working solution of 1X Ham's F-12 nutrient mix, without supplementation (Invitrogen, Waltham, MA, cat. 11765054), 100 U/mL penicillin-streptomycin (Invitrogen, cat. 15140122), and 2.5% Matrigel (Corning Inc., Corning, NY, cat. 354248) for the first three passages. All PDCs were cultured in complete DMEM/F-12 media containing advanced DMEM/F-12 (Invitrogen, cat. 12634028), 4.9% defined fetal bovine serum, heat inactivated (HyClone Laboratories Inc., Logan, UT, cat. SH30070.03HI), 389 ng/mL hydrocortisone (Sigma-Aldrich, cat. H4001), 9.7 ng/mL human EGF recombinant protein (Invitrogen, cat. PHG0313), 23.4 microg/mL adenine (Sigma-Aldrich, cat. A2786), 97.3 U/mL penicillin-streptomycin (Invitrogen, cat. 15140122), 1.9 mM L-glutamine (Invitrogen, cat. 25030081), and 9.7 microM Y-27632 dihydrochloride (Tocris Bioscience, Bristol, United Kingdom, cat. 1254). The PDCs were cultured in complete DMEM/F12 media without 10 microM Y-27632 dihydrochloride for at least two passages prior to the screen. The established cell lines NCI-H1341 and […] were cultured in DMEM/F-12, HEPES (Invitrogen, cat. 11330032), 5% defined fetal bovine serum (HyClone Laboratories Inc., cat. SH30070.03), ITS premix universal culture supplement [insulin (5 microg/mL), transferrin (5 microg/mL), and selenious acid (5 ng/mL)] […]

The mark [1] stands for this setting: curve of first compound, second compound 0.1 µM.
Setting [2] is: curve of first compound, second compound 0.316 µM.
[3] abbreviates: curve of first compound, second compound 1 µM.
Where [4] appears, read: curve of first compound, second compound 3.16 µM.
The mark [5] stands for this setting: curve of first compound, second compound 10 µM.
Where [6] appears, read: second compound 0.1 µM, first compound 0.0316 µM.
Setting [7] is: second compound 0.1 µM, first compound 0.1 µM.
The mark [8] stands for this setting: second compound 0.1 µM, first compound 0.316 µM.
Where [9] appears, read: second compound 0.1 µM, first compound 1 µM.
Where [10] appears, read: second compound 0.316 µM, first compound 0.0316 µM.
Setting [11] is: second compound 0.316 µM, first compound 0.1 µM.
[12] abbreviates: second compound 0.316 µM, first compound 0.316 µM.
Where [13] appears, read: second compound 0.316 µM, first compound 1 µM.
The mark [14] stands for this setting: second compound 1 µM, first compound 0.0316 µM.
Setting [15] is: second compound 1 µM, first compound 0.1 µM.
Setting [16] is: second compound 1 µM, first compound 0.316 µM.
The mark [17] stands for this setting: second compound 1 µM, first compound 1 µM.
Setting [18] is: second compound 3.16 µM, first compound 0.0316 µM.
Where [19] appears, read: second compound 3.16 µM, first compound 0.1 µM.
[20] abbreviates: second compound 3.16 µM, first compound 0.316 µM.
[21] abbreviates: second compound 3.16 µM, first compound 1 µM.
[22] abbreviates: second compound 10 µM, first compound 0.0316 µM.
Setting [23] is: second compound 10 µM, first compound 0.1 µM.
Where [24] appears, read: second compound 10 µM, first compound 0.316 µM.
The mark [25] stands for this setting: second compound 10 µM, first compound 1 µM.
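Further: spheroids exposed to agents for 7 days before readout.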
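Wherever viability, T/C is given: 100% = DMSO vehicle control wells.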

Turning to `CC(C)c1c(-c2ccccc2)nc2c(C#N)c[nH]n2c1=O`, the viability, T/C is 110% and 112% and 107% (compound 0.0316 µM); 110% and 105% and 109% (compound 0.1 µM); 101% (2×) and 103% (compound 0.316 µM); 109% and 104% and 112% (compound 1 µM); 107% and 106% and 111% (compound 3.16 µM); 101% and 107% and 102% (compound 10 µM). Moreover, the IC50 (curve of compound) was over 10 µM.
On to `CC(CO)NC(=O)c1cc(-c2ccc(Cl)cc2)nn(-c2cnn(C)c2)c1=O` (stereo not given), for which the viability, T/C (compound 0.316 µM) is 90% [middle of 21 runs]. Besides, for the setting “compound alone, run of 08/08/2022”, the IC50 was over 10 µM.
For `CC1COCCN1c1cc(C2(S(C)(=N)=O)CC2)nc(-c2ccnc3[nH]ccc23)n1` (stereo not given), the viability, T/C is 101% (2×) and 98.1% (compound 0.0316 µM); 109% and 103% and 97.3% (compound 0.1 µM); 101% and 110% and 96.7% (compound 0.316 µM); 94.8% and 103% and 108% (compound 1 µM); 98.2% and 102% and 104% (compound 3.16 µM); 99.1% and 92% and 114% (compound 10 µM). Moreover, the IC50 (curve of compound) was over 10 µM.
As for `COc1ccc([C@@H](O)c2cc(-c3ncnc4cc(N5CCOCC5)ccc34)c(F)cc2Cl)nn1`, the viability, T/C runs as follows: (compound 0.0316 µM) 107% and 116% and 95%; (compound 0.1 µM) 105% and 102% and 106%; (compound 0.316 µM) 94.2% and 93.8% and 101%; (compound 1 µM) 93.3% and 90.2% and 84.6%; (compound 3.16 µM) 65% and 45.8% and 61.5%; (compound 10 µM) 46.3% and 26% and 26.9%. The IC50 (curve of compound) is 7.94 µM and 3.03 µM and 4.53 µM.
`Cc1ccccc1N=Nc1ccc(NC(=O)c2ccnn2C)c(C)c1`: the viability, T/C was 90.5% [middle of 20 runs] (compound 0.1 µM), 90.9% [middle of 20 runs] (compound 0.316 µM) and 86.1% [middle of 20 runs] (compound 1 µM). In addition, where the note is “compound alone, run of 08/22/2022”, the IC50 was over 10 µM.
On to `Cc1cncc(-c2nc(NCCc3c[nH]c4ccccc34)c3ncn(C(C)C)c3n2)c1`, for which the viability, T/C (compound 0.1 µM) is 95.2% [middle of 20 runs] and the viability, T/C (compound 0.316 µM) was 94.5% [middle of 20 runs]. In addition, the IC50 (compound alone, run of 08/16/2022) was over 10 µM.
In the case of `COc1cccc2c1C(=O)c1c(O)c3c(c(O)c1C2=O)CC(O)(C(=O)CO)CC3OC1CC(N)C(O)C(C)O1` (stereo not given) + CC(CO)NC(=O)c1cc(-c2ccc(Cl)cc2)nn(-c2cnn(C)c2)c1=O, the IC50 by setting is: under setting [1], 8.45 µM; under setting [2], 9.32 µM; under setting [3], 8.98 µM; under setting [4], 6.53 µM; under setting [5], 3.24 µM. The viability, T/C by setting is: under setting [6], 101%; under setting [7], 106%; under setting [8], 107%; under setting [9], 96.3%; (second compound 0.1 µM, first compound 3.16 µM) 108%; (second compound 0.1 µM, first compound 10 µM) 40.6%. For the same molecule, the viability, T/C was 93.7% under setting [10]; 106% under setting [11]; 108% under setting [12]; 93.5% under setting [13]; 102% (second compound 0.316 µM, first compound 3.16 µM); 46.7% (second compound 0.316 µM, first compound 10 µM). Besides, the viability, T/C by setting is: under setting [14], 110%; under setting [15], 95%; under setting [16], 107%; under setting [17], 97%; (second compound 1 µM, first compound 3.16 µM) 93.2%; (second compound 1 µM, first compound 10 µM) 45.5%. In addition, the viability, T/C by setting is: under setting [18], 88%; under setting [19], 91.6%; under setting [20], 108%; under setting [21], 96.7%; (second compound 3.16 µM, first compound 3.16 µM) 88.2%; (second compound 3.16 µM, first compound 10 µM) 27.4%. Also, the viability, T/C is, setting by setting: under setting [22], 92%; under setting [23], 103%; under setting [24], 101%; under setting [25], 89.7%; (second compound 10 µM, first compound 3.16 µM) 51.2%; (second compound 10 µM, first compound 10 µM) 0.36%.
For the molecule `Nc1ncn(C2CC(O)C(CO)O2)c(=O)n1` (stereo not given) + CC(CO)NC(=O)c1cc(-c2ccc(Cl)cc2)nn(-c2cnn(C)c2)c1=O, the IC50 was over 1 µM under setting [1]; over 1 µM under setting [2]; over 1 µM under setting [3]; over 1 µM under setting [4]; over 1 µM under setting [5]. Besides, the viability, T/C reads like this: (second compound 0.1 µM, first compound 0.00316 µM) 88.6%; (second compound 0.1 µM, first compound 0.01 µM) 93.4%; under setting [6], 98.4%; under setting [7], 87.5%; under setting [8], 99.4%; under setting [9], 91.4%. Further, the viability, T/C is 80.4% (second compound 0.316 µM, first compound 0.00316 µM); 89.9% (second compound 0.316 µM, first compound 0.01 µM); 91% under setting [10]; 98% under setting [11]; 84.5% under setting [12]; 85.3% under setting [13]. In addition, the viability, T/C by setting is: (second compound 1 µM, first compound 0.00316 µM) 94.8%; (second compound 1 µM, first compound 0.01 µM) 93.2%; under setting [14], 89.9%; under setting [15], 94.7%; under setting [16], 101%; under setting [17], 88.6%. For the same molecule, the viability, T/C was 95.2% (second compound 3.16 µM, first compound 0.00316 µM); 85.2% (second compound 3.16 µM, first compound 0.01 µM); 96% under setting [18]; 92.3% under setting [19]; 85% under setting [20]; 84.3% under setting [21]. The viability, T/C is 88.2% (second compound 10 µM, first compound 0.00316 µM); 96% (second compound 10 µM, first compound 0.01 µM); 88.7% under setting [22]; 93.9% under setting [23]; 82.9% under setting [24]; 107% under setting [25].
